Laboratory results from patent US20260262643A1, “HERBICIDAL BENZOXAZINES” (FMC CORPORATION, priority 2022, published 2026).

Experiments:
[1] = tested on: blackgrass; assay: Test C postemergence; type: in vivo, Alopecurus myosuroides; settings: 10 days, 0 to 100 scale (0 no effect, 100 complete control)
Method in brief: (§1)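 Greenhouse herbicide screen, 10-day duration. Test chemicals in solvent/surfactant blend were sprayed onto soil at sowing (pre) or onto 2–10 cm seedlings at one to two leaves (post); injury scored visually against controls, 0 no effect to 100 complete control.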

[2] = tested on: ducksalad; assay: Test D flooded paddy test; type: in vivo, Heteranthera limosa; settings: 250 g ai/ha, applied to paddy water, visual rating after 13 to 14 days, scale 0 to 100 (0 no effect, 100 complete control)
Method in brief: (§2)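 Visual ratings from 0, meaning no effect, to 100, meaning complete control, were assigned against untreated controls 13 to 14 days after compounds were added to the floodwater of pots kept 3 cm deep, with plants at the 2-leaf stage.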

[3] = tested on: sedge, umbrella; assay: Test D flooded paddy test; type: in vivo, Cyperus difformis; settings: 250 g ai/ha, applied to paddy water, visual rating after 13 to 14 days, scale 0 to 100 (0 no effect, 100 complete control)
Method in brief: as §2

[4] = tested on: pigweed, palmer; assay: Test C postemergence; type: in vivo, Amaranthus palmeri; settings: 10 days, 0 to 100 scale (0 no effect, 100 complete control)
Method in brief: as §1

[5] = tested on: oat, wild; assay: Test C preemergence; type: in vivo, Avena fatua
Method in brief: as §1

[6] = tested on: soybean; assay: Test C postemergence; type: in vivo, Glycine max; settings: 10 days, 0 to 100 scale (0 no effect, 100 complete control)
Method in brief: as §1

[7] = tested on: green foxtail; assay: Test C preemergence; type: in vivo, Setaria viridis
Method in brief: as §1

[8] = tested on: kochia; assay: Test C postemergence; type: in vivo, Bassia scoparia; settings: 10 days, 0 to 100 scale (0 no effect, 100 complete control)
Method in brief: as §1

[9] = tested on: horseweed; assay: Test C postemergence; type: in vivo, Erigeron canadensis; settings: 10 days, 0 to 100 scale (0 no effect, 100 complete control)
Method in brief: as §1

[10] = tested on: soybean; assay: Test C preemergence; type: in vivo, Glycine max
Method in brief: as §1

[11] = tested on: wheat; assay: Test C preemergence; type: in vivo, Triticum aestivum
Method in brief: as §1

[12] = tested on: ryegrass, Italian; assay: Test C preemergence; type: in vivo, Lolium multiflorum
Method in brief: as §1

[13] = tested on: oat, wild; assay: Test C postemergence; type: in vivo, Avena fatua; settings: 10 days, 0 to 100 scale (0 no effect, 100 complete control)
Method in brief: as §1

[14] = tested on: ragweed; assay: Test C postemergence; type: in vivo, Ambrosia artemisiifolia; settings: 10 days, 0 to 100 scale (0 no effect, 100 complete control)
Method in brief: as §1

[15] = tested on: corn; assay: Test C postemergence; type: in vivo, Zea mays; settings: 10 days, 0 to 100 scale (0 no effect, 100 complete control)
Method in brief: as §1

[16] = tested on: barnyardgrass; assay: Test C preemergence; type: in vivo, Echinochloa crusgalli
Method in brief: as §1

[17] = tested on: corn; assay: Test C preemergence; type: in vivo, Zea mays
Method in brief: as §1

[18] = tested on: barnyardgrass; assay: Test D flooded paddy test; type: in vivo, Echinochloa crus-galli; settings: 250 g ai/ha, applied to paddy water, visual rating after 13 to 14 days, scale 0 to 100 (0 no effect, 100 complete control)
Method in brief: as §2

[19] = tested on: galium; assay: Test C postemergence; type: in vivo, Galium aparine; settings: 10 days, 0 to 100 scale (0 no effect, 100 complete control)
Method in brief: as §1

[20] = tested on: kochia; assay: Test C preemergence; type: in vivo, Bassia scoparia
Method in brief: as §1

[21] = tested on: green foxtail; assay: Test C postemergence; type: in vivo, Setaria viridis; settings: 10 days, 0 to 100 scale (0 no effect, 100 complete control)
Method in brief: as §1

[22] = tested on: ryegrass, Italian; assay: Test C postemergence; type: in vivo, Lolium multiflorum; settings: 10 days, 0 to 100 scale (0 no effect, 100 complete control)
Method in brief: as §1

[23] = tested on: barnyardgrass; assay: Test C postemergence; type: in vivo, Echinochloa crusgalli; settings: 10 days, 0 to 100 scale (0 no effect, 100 complete control)
Method in brief: as §1

[24] = tested on: wheat; assay: Test C postemergence; type: in vivo, Triticum aestivum; settings: 10 days, 0 to 100 scale (0 no effect, 100 complete control)
Method in brief: as §1

[25] = tested on: blackgrass; assay: Test C preemergence; type: in vivo, Alopecurus myosuroides
Method in brief: as §1

[26] = tested on: pigweed, palmer; assay: Test C preemergence; type: in vivo, Amaranthus palmeri
Method in brief: as §1

[27] = tested on: rice; assay: Test D flooded paddy test; type: in vivo, Oryza sativa; settings: 250 g ai/ha, applied to paddy water, visual rating after 13 to 14 days, scale 0 to 100 (0 no effect, 100 complete control)
Method in brief: as §2

[28] = tested on: ragweed; assay: Test C preemergence; type: in vivo, Ambrosia artemisiifolia
Method in brief: as §1

[29] = 500 g ai/ha, preemergence, 0 to 100 scale (0 no effect, 100 complete control)
[30] = Preemergence, 125 g ai/ha, 0 to 100 scale, 0 no effect, 100 complete control

Cc1cccc2c1OC(C(F)(F)F)CN2C(=O)c1cccc(-n2cnc(C(C)(C)C)n2)c1 (stereo not shown) [Compound 347]
Plant response rating, Blackgrass ([1]; 500 g ai/ha, postemergence): 60
Plant response rating, Blackgrass ([1]; Postemergence, 125 g ai/ha): 10
Plant response rating, Ducksalad (Flood) [2]: 0
Plant response rating, Sedge, Umbrella (Flood) [3]: 0
Plant response rating, Pigweed, Palmer ([4]; 500 g ai/ha, postemergence): 80
Plant response rating, Pigweed, Palmer ([4]; Postemergence, 125 g ai/ha): 80
Oat, Wild plant response rating [5, 29]: 70
Plant response rating, Oat, Wild [5, 30]: 60
Plant response rating, Soybean ([6]; 500 g ai/ha, postemergence): 100
Plant response rating, Soybean ([6]; Postemergence, 125 g ai/ha): 100
Foxtail, Green plant response rating [7, 29]: 100
Plant response rating, Foxtail, Green [7, 30]: 90
Plant response rating, Kochia ([8]; 500 g ai/ha, postemergence): 70
Plant response rating, Kochia ([8]; Postemergence, 125 g ai/ha): 50
Plant response rating, Horseweed ([9]; 500 g ai/ha, postemergence): 20
Plant response rating, Horseweed ([9]; Postemergence, 125 g ai/ha): 0
Soybean plant response rating [10, 29]: 30
Plant response rating, Soybean [10, 30]: 30
Wheat plant response rating [11, 29]: 40
Plant response rating, Wheat [11, 30]: 20
Ryegrass, Italian plant response rating [12, 29]: 100
Plant response rating, Ryegrass, Italian [12, 30]: 100
Plant response rating, Oat, Wild ([13]; 500 g ai/ha, postemergence): 10
Plant response rating, Oat, Wild ([13]; Postemergence, 125 g ai/ha): 10
Plant response rating, Ragweed ([14]; 500 g ai/ha, postemergence): 50
Plant response rating, Ragweed ([14]; Postemergence, 125 g ai/ha): 20
Plant response rating, Corn ([15]; 500 g ai/ha, postemergence): 10
Plant response rating, Corn ([15]; Postemergence, 125 g ai/ha): 10
Barnyardgrass plant response rating [16, 29]: 100
Plant response rating, Barnyardgrass [16, 30]: 20
Corn plant response rating [17, 29]: 10
Plant response rating, Corn [17, 30]: 0
Plant response rating, Barnyardgrass (Flood) [18]: 0
Plant response rating, Galium ([19]; 500 g ai/ha, postemergence): 80
Plant response rating, Galium ([19]; Postemergence, 125 g ai/ha): 90
Kochia plant response rating [20, 29]: 60
Plant response rating, Kochia [20, 30]: 50
Plant response rating, Foxtail, Green ([21]; 500 g ai/ha, postemergence): 60
Plant response rating, Foxtail, Green ([21]; Postemergence, 125 g ai/ha): 20
Plant response rating, Ryegrass, Italian ([22]; 500 g ai/ha, postemergence): 30
Plant response rating, Ryegrass, Italian ([22]; Postemergence, 125 g ai/ha): 20
Plant response rating, Barnyardgrass ([23]; 500 g ai/ha, postemergence): 20
Plant response rating, Barnyardgrass ([23]; Postemergence, 125 g ai/ha): 10
Plant response rating, Wheat ([24]; 500 g ai/ha, postemergence): 10
Plant response rating, Wheat ([24]; Postemergence, 125 g ai/ha): 10
Blackgrass plant response rating [25, 29]: 30
Plant response rating, Blackgrass [25, 30]: 10
Pigweed, Palmer plant response rating [26, 29]: 70
Plant response rating, Pigweed, Palmer [26, 30]: 80
Plant response rating, Rice (Flood) [27]: 0
Ragweed plant response rating [28, 29]: 30
Plant response rating, Ragweed [28, 30]: 0
